Here are results for 19 compounds from ChEMBL document CHEMBL1128660, “Synthesis and fungicidal activity of 2,2-bipyridine derivatives” (1995).

Assay type in all cases: functional
For assay [1], the system named is Botrytis cinerea. The experiment in a line: Fungicidal activity (under greenhouse conditions against Cucumber botrytis (Botrytis cinerea) at 200 ppm.
The test system of assay [2] is Oculimacula yallundae. The experiment in a line: Fungicidal activity under greenhouse conditions against Wheat foot rot (Pseudocercosporella herpotrichoides) at 200 ppm.
For the next assay, the system named is Phytophthora infestans. The experiment in a line: Fungicidal activity under greenhouse conditions against Tomato late blight (Phtyopthora infestans) at 200 ppm.
The next assay deals with Thanatephorus cucumeris. The experiment in a line: Fungicidal activity under greenhouse conditions against Rice sheath blight (Rhizoctonia solani) at 200 ppm.
The subject of assay [3] is Pyricularia grisea. The assay can be described thus: Fungicidal activity under greenhouse conditions against Rice blast (Pyricularia oryzae) at 200 ppm.
Assay [4] has as its system Blumeria graminis. The experiment in a line: Fungicidal activity under greenhouse conditions against Wheat powdery mildew (Erisyphe graminis) at 200 ppm at 200 ppm.
For assay [5], the system named is Oculimacula yallundae. The assay can be described thus: The fungicidal activity (percent disease control) under greenhouse conditions against Wheat foot rot (Pseudocercosporella herpotrichoides) at 40 ppm.
In assay [6] the test system is Parastagonospora nodorum. The experiment in a line: The fungicidal activity (percent disease control) under greenhouse conditions against Wheat septoria (Septoria nodorum) at 40 ppm; shows curative effect.
For assay [7], the system named is Blumeria graminis. The assay can be described thus: The fungicidal activity (percent disease control) under greenhouse conditions against Wheat powdery mildew (Erisyphe graminis) at 200 ppm at 200 ppm; shows curative effect.
For assay [8], the system named is Puccinia recondita. The experiment in a line: Fungicidal activity under greenhouse conditions against Wheat leaf rust (Puccinia recondita) at 200 ppm.
Assay [9] concerns Parastagonospora nodorum. The assay can be described thus: The fungicidal activity (percent disease control) under greenhouse conditions against Wheat septoria (Septoria nodorum) at 40 ppm.
Assay [10] deals with Plasmopara viticola. The assay can be described thus: The fungicidal activity (percent disease control) under greenhouse conditions against Grape downy mildew (Plasmopara viticola) at 200 ppm.
For assay [11], the system named is Puccinia recondita. The assay can be described thus: The fungicidal activity (percent disease control) under greenhouse conditions against Wheat leaf rust (Puccinia recondita) at 40 ppm; shows curative effect.
Assay [12] has as its system Parastagonospora nodorum. The assay can be described thus: The fungicidal activity (percent disease control) under greenhouse conditions against Wheat septoria (Septoria nodorum) at 200 ppm.
For assay [13], the system named is Plasmopara viticola. The experiment in a line: The fungicidal activity (percent disease control) under greenhouse conditions against Grape downy mildew (Plasmopara viticola) at 40 ppm.
Assay [14] has as its system Blumeria graminis. The assay can be described thus: The fungicidal activity (percent disease control) under greenhouse conditions against Wheat powdery mildew (Erisyphe graminis) at 40 ppm; shows curative effect.
Assay [15] concerns Puccinia recondita. The experiment in a line: The fungicidal activity (percent disease control) under greenhouse conditions against Wheat leaf rust (Puccinia recondita) at 40 ppm.
Assay [16] relates to Puccinia recondita. The assay can be described thus: The fungicidal activity (percent disease control) under greenhouse conditions against Wheat leaf rust (Puccinia recondita) at 200 ppm; shows curative effect.
Assay [17] has as its system Parastagonospora nodorum. The experiment in a line: The fungicidal activity (percent disease control) under greenhouse conditions against Wheat septoria (Septoria nodorum) at 200 ppm; shows curative effect.
The subject of assay [18] is Pyricularia grisea. The assay can be described thus: The fungicidal activity (percent disease control) under greenhouse conditions against Rice blast (Pyricularia oryzae) at 200 ppm; shows curative effect.
The test system of assay [19] is Blumeria graminis. The experiment in a line: The fungicidal activity (percent disease control) under greenhouse conditions against Wheat powdery mildew (Erisyphe graminis) at 40 ppm […].
For assay [20], the system named is Botrytis cinerea. The experiment in a line: The fungicidal activity (percent disease control) under greenhouse conditions against Cucumber botrytis (Botrytis cinerea) at 40 ppm.

With `CC(C)c1ccnc(-c2cc(C(C)C)ccn2)c1`, the Disease control in the assay on Botrytis cinerea [1] stood at 0%; in the assay on Oculimacula yallundae [2], 12%; in the assay with Phytophthora infestans, 0%; in the assay with Thanatephorus cucumeris it was 73%; in the assay with Pyricularia grisea [3] it was 67%; in the assay on Blumeria graminis [4], 38%.
On to `Fc1ccc(-c2ccc(-c3ccccn3)nc2)cc1`, for which the Disease control in the assay with Botrytis cinerea [1] was determined as 0%; with Oculimacula yallundae [5] it was 27%; with Parastagonospora nodorum [6], 32%; in the assay with Phytophthora infestans, 24%; in the assay on Blumeria graminis [7], 55%; with Thanatephorus cucumeris, 100%. In addition, the Disease control with Puccinia recondita [8] is 64%; in the assay with Pyricularia grisea [3] it was 32%.
Regarding `CCCCc1ccnc(-c2cc(CCCC)ccn2)c1`, the Disease control in the assay on Botrytis cinerea [1] was 0%; in the assay on Oculimacula yallundae [2] it was 44%; in the assay with Phytophthora infestans, 0%; in the assay with Thanatephorus cucumeris, 93%; in the assay on Puccinia recondita [8] it was 33%; in the assay on Pyricularia grisea [3], 85%. The same compound registered a Disease control in the assay with Blumeria graminis [4] of 21%.
Consider `Cc1ccnc(-c2cc(-c3ccccc3)ccn2)c1`, for which the Disease control in the assay on Botrytis cinerea [1] was determined as 30%; in the assay on Oculimacula yallundae [2], 66%; with Parastagonospora nodorum [6], 19%; with Phytophthora infestans, 0%; in the assay on Thanatephorus cucumeris, 81%; with Puccinia recondita [8], 99%. Also, the Disease control with Pyricularia grisea [3] turned out to be 53%; in the assay with Blumeria graminis [4], 99%.
Regarding `COc1ccccc1-c1ccnc(-c2ccccn2)c1`, the Disease control in the assay with Botrytis cinerea [1] is 0%; with Oculimacula yallundae [2], 0%; in the assay on Phytophthora infestans it was 24%; in the assay with Blumeria graminis [7], 93%; in the assay on Parastagonospora nodorum [9], 27%; in the assay with Thanatephorus cucumeris it was 0%. In addition, the Disease control with Puccinia recondita [8] was determined as 85%; with Pyricularia grisea [3], 32%.
For the compound `c1ccc(-c2ccnc(-c3ccccn3)c2)cc1`, the Disease control in the assay with Botrytis cinerea [1] is listed as 0%; in the assay with Oculimacula yallundae [2] it was 0%; in the assay on Parastagonospora nodorum [6], 94%; in the assay with Phytophthora infestans it was 0%; in the assay with Blumeria graminis [7] it was 95%; in the assay with Thanatephorus cucumeris, 0%. Also, the Disease control with Plasmopara viticola [10] is 96%; with Pyricularia grisea [3], 74%; with Puccinia recondita [11] it was 11%.
As for `Cc1ccc(-c2ccccn2)nc1`, the Disease control with Botrytis cinerea [1], in the assay on Oculimacula yallundae [2], in the assay with Phytophthora infestans, in the assay with Thanatephorus cucumeris, with Plasmopara viticola [10] and in the assay with Puccinia recondita [8] was 0% throughout. Also, the values for the Disease control in the assay on Pyricularia grisea [3], in the assay on Blumeria graminis [4] and in the assay with Parastagonospora nodorum [12] were 0%, 24% and 0%, respectively.
As to `O=[N+]([O-])c1ccccc1-c1ccnc(-c2ccccn2)c1`, the Disease control with Botrytis cinerea [1] worked out at 41%; in the assay with Oculimacula yallundae [2], 0%; with Parastagonospora nodorum [6] it was 76%; in the assay with Phytophthora infestans it was 24%; in the assay with Thanatephorus cucumeris it was 0%; in the assay with Puccinia recondita [8], 67%. Further, the Disease control in the assay with Pyricularia grisea [3] is 32%; in the assay with Blumeria graminis [4], 0%.
On to `Clc1ccc(-c2ccc(-c3ccccn3)nc2)cc1`, for which the Disease control with Botrytis cinerea [1] was 0%; with Plasmopara viticola [13], 50%; in the assay on Oculimacula yallundae [2], 81%; with Phytophthora infestans it was 0%; in the assay with Blumeria graminis [7], 99%; in the assay with Thanatephorus cucumeris, 100%. For the same compound, the Disease control was 65% in the assay with Puccinia recondita [8], 97% with Pyricularia grisea [3] and 98% in the assay on Parastagonospora nodorum [12].
As for `CCCCCCCCCCCCc1ccnc(-c2cc(CCCCCCCCCCCC)ccn2)c1`, the Disease control in the assay with Botrytis cinerea [1], in the assay on Oculimacula yallundae [2], with Phytophthora infestans, in the assay with Thanatephorus cucumeris, with Pyricularia grisea [3] and with Blumeria graminis [4] was 0% in each case.
With `COc1ccccc1-c1ccnc(-c2cc(C)ccn2)c1`, the Disease control is listed as 0% in the assay with Botrytis cinerea [1]; 86% in the assay with Oculimacula yallundae [2]; 12% in the assay with Parastagonospora nodorum [6]; 0% in the assay with Phytophthora infestans; 81% in the assay with Thanatephorus cucumeris; 30% in the assay on Blumeria graminis [14]. The Disease control with Puccinia recondita [15] was determined as 19%; with Pyricularia grisea [3] it was 53%.
For `Cc1ccc(-c2ccc(-c3ccccn3)nc2)cc1`, the Disease control in the assay on Botrytis cinerea [1] came to 59%; in the assay with Oculimacula yallundae [2] it was 0%; in the assay with Phytophthora infestans, 0%; in the assay with Puccinia recondita [16], 84%; in the assay on Blumeria graminis [7], 99%; in the assay with Thanatephorus cucumeris, 0%. Also, the figures for the Disease control in the assay on Pyricularia grisea [3] and with Parastagonospora nodorum [17] were 32% and 95%, respectively.
Take `COc1ccc(-c2ccc(-c3ccccn3)nc2)cc1`: the Disease control turned out to be 0% in the assay with Botrytis cinerea [1]; 65% with Plasmopara viticola [13]; 75% in the assay on Oculimacula yallundae [2]; 0% in the assay with Phytophthora infestans; 19% in the assay on Thanatephorus cucumeris; 93% in the assay with Puccinia recondita [8]. For the same compound, the Disease control is 97% with Pyricularia grisea [3], 92% in the assay with Blumeria graminis [4] and 40% in the assay on Parastagonospora nodorum [12].
Take `c1ccc(-c2ccc(-c3ccccn3)nc2)cc1`: the Disease control in the assay with Botrytis cinerea [1] is given as 45%; in the assay on Oculimacula yallundae [2] it was 0%; with Phytophthora infestans, 23%; in the assay on Blumeria graminis [7] it was 100%; in the assay on Thanatephorus cucumeris it was 0%; in the assay with Plasmopara viticola [10] it was 96%. Further, the Disease control is listed as 87% in the assay on Pyricularia grisea [18], 60% with Puccinia recondita [11] and 100% with Parastagonospora nodorum [12].
For the compound `CCCCCc1ccnc(-c2cc(CCCCC)ccn2)c1`, the Disease control in the assay with Botrytis cinerea [1] was 0%; with Oculimacula yallundae [2] it was 0%; in the assay with Phytophthora infestans, 0%; in the assay on Thanatephorus cucumeris, 93%; in the assay with Puccinia recondita [8] it was 90%; in the assay on Pyricularia grisea [3], 27%. In addition, the Disease control in the assay with Blumeria graminis [4] is recorded as 92%.
Regarding `O=[N+]([O-])c1ccc(-c2ccc(-c3ccccn3)nc2)cc1`, the Disease control in the assay with Botrytis cinerea [1] was 0%; with Oculimacula yallundae [2], 0%; in the assay on Phytophthora infestans it was 0%; in the assay on Thanatephorus cucumeris it was 0%; in the assay on Plasmopara viticola [10], 60%; with Puccinia recondita [8], 0%. In addition, the Disease control with Pyricularia grisea [3], in the assay with Blumeria graminis [4] and with Parastagonospora nodorum [12] was 0% each time.
For `Brc1ccc(-c2ccc(-c3ccccn3)nc2)cc1`, the Disease control is recorded as 0% in the assay on Botrytis cinerea [1]; 0% in the assay with Oculimacula yallundae [2]; 58% in the assay on Parastagonospora nodorum [6]; 0% in the assay on Phytophthora infestans; 19% in the assay on Blumeria graminis [7]; 0% in the assay with Thanatephorus cucumeris. Moreover, the Disease control in the assay on Puccinia recondita [8] is reported as 20%; with Pyricularia grisea [3], 0%.
As to `Cc1ccnc(-c2ccc(-c3ccccc3)cn2)c1`, the Disease control worked out at 69% with Oculimacula yallundae [2]; 47% in the assay with Blumeria graminis [19]; 96% in the assay with Parastagonospora nodorum [6]; 0% with Phytophthora infestans; 0% in the assay on Thanatephorus cucumeris; 93% in the assay on Puccinia recondita [8]. Moreover, the Disease control in the assay on Pyricularia grisea [3] was determined as 32%; in the assay on Botrytis cinerea [20], 28%.
For the compound `c1ccc(OCc2ccc(-c3ccccn3)nc2)cc1`, the Disease control with Botrytis cinerea [1], in the assay on Oculimacula yallundae [2], with Phytophthora infestans, in the assay with Thanatephorus cucumeris, in the assay on Puccinia recondita [8] and in the assay with Pyricularia grisea [3] was 0% each time. For the same compound, the Disease control is on record as 11% in the assay on Blumeria graminis [4] and 0% in the assay on Parastagonospora nodorum [12].
